Test results reported in US6777420B2, “Heterocyclic antibacterial compounds” (Microbiotix, Inc., priority 2001, dated 2004).
Values after ≈ are worked out from the molar mass of the structure shown. Marks after values point to notes of the source that are not given here.

Legend:
[1] = system: B. subtilis; assay: MIC determination, B. subtilis; format: cell-based, Bacillus subtilis
Procedure: (§1) Minimal Inhibitory Concentration (MIC) determinations. […] Each drug is evaluated at five concentrations, with five data points at each dilution. MIC values (μg/ml) were determined against actively growing cultures in Heart-Brain Infusion (HBI) medium. Cell growth in cultures supplemented with a test compound was calculated as a percent of control at OD 600 nm after 16 to 18 hours at 37° C. This plate format conserves test compound and provides precise, quantitative data with low standard deviation determinations.

[2] = system: E. fecium; assay: MIC determination, E. fecium; format: cell-based, Enterococcus fecium
Procedure: (§2) Minimal Inhibitory Concentration (MIC) determinations. […] Each drug is evaluated at five concentrations, with five data points at each dilution. MIC values (μg/ml) were determined against actively growing cultures in Heart-Brain Infusion (HBI) medium. Cell growth in cultures supplemented with a test compound was calculated as a percent of control at OD 600 nm after 16 to 18 hours at 37° C.

[3] = system: S. aureus (Smith); assay: MIC determination, S. aureus (Smith); format: cell-based, Staphylococcus aureus
Procedure: as §1

[4] = system: E. coli; assay: MIC determination, E. coli; format: cell-based, Escherichia coli
Procedure: as §1

[5] = molecular target: T1, B. subtilis Pol IIIC (Bacillus subtilis, UniProt P13267); assay: Polymerase IIIC (Pol IIIC) assay, determination of Ki values; format: biochemical; details: Ki = concentration that reduces control polymerase activity by 50 percent
T1 construct: made in house
Procedure: Polymerase IIIC (Pol IIIC) assay. DNA polymerase activity (or inhibition thereof) was measured in a 96-well plate format. B. subtilis Pol IIIC was isolated as described by Hammond and Brown (Protein Expr. Purif., 3: 65-70 (1992)). Each 25 μl assay contained 30 mM Tris, pH 7.5, 10 mM magnesium acetate, 4 mM dithiothreitol, 20% glycerol, with 25 μM dATP, dCTP, dGTP and 10 μM dTTP (3H-labelled at 1.44 Ci/mmole) and 0.4 mg/ml activated calf thymus DNA as substrates, as described previously (see Barnes et al, op. cit). Assays were initiated by the addition of 0.025 to 0.06 units of enzyme 1 unit is the amount required to incorporate 250 pmoles of [^3H] dTMP in a standard assay), incubated for 10 minutes at 30° C. and terminated by the addition of 200 μl of cold 10% trichloroacetic acid (TCA), 10 mM sodium pyrophosphate. Precipitated labeled DNA was collected on glass fiber filter plates, washed, dried, and counted in a liquid scintillation counter.
Determination of Ki values. DNA polymerase activity was measured in a 96-well plate format in the absence of dGTP or dATP, depending on the structure of the test compound. Each 25 μl assay contained 30 mM Tris, pH 7.5, 10 mM magnesium acetate, 4 mM dithiothreitol, 20% glycerol, with 25 μM dATP, dCTP, and 10 μM dTTP (3H-labelled at 1.44 Ci/mmole) and 0.4 mg/ml activated calf thymus DNA as substrates, as described previously. To each well were added 2 μl of compound solution to give final concentrations ranging from 20-0.027 μg/ml in the assay. Assays were initiated by the addition of 0.025 to 0.06 units of enzyme (1 unit is the amount required to incorporate 250 pmoles of [^3H] dTMP in a standard assay), incubated for 10 minutes at 30° C. and terminated by the addition of 200 μl of cold 10% trichloroacetic acid, 10 mM sodium pyrophosphate. Precipitated labeled DNA was collected on glass fiber filter plates, washed, dried, and counted in a liquid scintillation counter. Ki is the concentration of test compound that reduces the control polymerase mc activity by 50 percent.

[6] = system: S. aureus; assay: MIC determination, S. aureus; format: cell-based, Staphylococcus aureus
Procedure: as §1

[7] = system: E. fecalis; assay: MIC determination, E. fecalis; format: cell-based, Enterococcus fecalis
Procedure: as §2

[8] = system: Enterococcus faecalis (ATCC 29212); assay: In vivo efficacy of Compound 70 in mouse model, Enterococcus faecalis; details: mice, 3 × 10^7 CFU/mouse +5% Mucin; positive control, 100 mg/kg, t = 0
Procedure: (§3) Swiss Webster mice, ca. 20 g each, were infected with Staphylococcus aureus (Smith strain) by the intraperitoneal route. Test compounds (2, 4, 5, 6, 7, 8, 10, 12) were dissolved in 10% dimethylsulfoxide in peanut oil to a concentration of 2 mg/ml. Vancomycin was used as positive control drug (i.e., protection from lethal infection). Fifteen minutes after infection, test compounds, vancomycin, or vehicle alone were given intraperitoneally to groups of five mice each. Animals were monitored for three days, and the number of mice surviving was tabulated for each treatment.
(§4) Using the same basic procedure as described above, the in vivo efficacy of Compound 70 was also evaluated at various doses in mice infected with S. aureaus (Smith), MRSA 1094, Enterococcus faecalis, or vancomycin-resistant Enterococcus faecalis strain VRE 700802. […] Negative controls were mice infected that received no treatment. Mucin was employed as an adjuvant to facilitate bacterial infection in mice, where indicated.

[9] = system: MSSA108 (methicillin sensitive S. aureus strain); assay: MIC determination, MSSA108; format: cell-based; details: Staphylococcus aureus, read-out: MIC (μg/ml) MSSA108
Procedure: as §1
Compounds were also tested for antibacterial activity against certain clinically relevant strains, e.g., methicillin sensitive (MSSA) and methicillin resistant (MRSA) strains of Staphylococcus aureus.

[10] = system: Staphylococcus aureus (Smith strain); assay: Protection of mice from lethal intraperitoneal infection, compound given intraperitoneally; format: in vivo; details: 15 minutes after infection
Procedure: FIG. 1B is a bar graph showing number of survivors in each group of five mice at 24 hours after intraperitoneal infection with 1×10^8 colony forming units (CFU) of Staphylococcus aureus (Smith strain) and followed 15 minutes post infection by administration of Compound 2 at a dose of 0 (Vehicle Control), 1, 3, and 10 mg of compound per kg of body weight. Vancomycin at a dose of 10 mg/kg of body weight served as a positive control for antibiotic activity. See text for details.
FIG. 2B is a bar graph showing number of survivors of a group of five mice at 24 hours after intraperitoneal infection with Staphylococcus aureus (Smith strain) as in FIG. 1B, except that Compound 10 was administered to each animal at 0, 0.1, 0.3, 1.0, 3.0, and 10 mg/kg body weight at 15 minutes post infection. Controls were the same as in FIG. 1B. See text for details.
FIG. 3B is a bar graph showing number of survivors in each group of five mice at 24 hours after intraperitoneal infection with Staphylococcus aureus (Smith strain) as in FIG. 1, except that 15 minutes after infection, the mice in each group received a dose of 0.5 mg/kg of body weight of compound 10, 4, 5, 6, 7, 8, or 12. Controls were the same as in FIG. 1. See text for details.
as §3

[11] = system: vancomycin-resistant Enterococcus faecalis strain VRE 700802; assay: In vivo efficacy of Compound 70 in mouse model, VRE 700802; details: mice, 3 × 10^8 CFU/mouse +5% Mucin; positive control, 100 mg/kg, t = 0
Procedure: as §3, §4

[12] = system: enterococci or staphylococci strains, including MRSA and VRE strains; assay: In vivo activity of Compound 70 against intraperitoneal challenge, overall statement; details: mice; administration from distant parenteral sites (i.e., iv, sc, or im)
Procedure: as §4

[13] = HBI medium, 16 to 18 hours at 37° C.
[14] = Swiss Webster mice, dosage range 1-10 mg/kg body weight

T1 sequence (P13267 whole entry): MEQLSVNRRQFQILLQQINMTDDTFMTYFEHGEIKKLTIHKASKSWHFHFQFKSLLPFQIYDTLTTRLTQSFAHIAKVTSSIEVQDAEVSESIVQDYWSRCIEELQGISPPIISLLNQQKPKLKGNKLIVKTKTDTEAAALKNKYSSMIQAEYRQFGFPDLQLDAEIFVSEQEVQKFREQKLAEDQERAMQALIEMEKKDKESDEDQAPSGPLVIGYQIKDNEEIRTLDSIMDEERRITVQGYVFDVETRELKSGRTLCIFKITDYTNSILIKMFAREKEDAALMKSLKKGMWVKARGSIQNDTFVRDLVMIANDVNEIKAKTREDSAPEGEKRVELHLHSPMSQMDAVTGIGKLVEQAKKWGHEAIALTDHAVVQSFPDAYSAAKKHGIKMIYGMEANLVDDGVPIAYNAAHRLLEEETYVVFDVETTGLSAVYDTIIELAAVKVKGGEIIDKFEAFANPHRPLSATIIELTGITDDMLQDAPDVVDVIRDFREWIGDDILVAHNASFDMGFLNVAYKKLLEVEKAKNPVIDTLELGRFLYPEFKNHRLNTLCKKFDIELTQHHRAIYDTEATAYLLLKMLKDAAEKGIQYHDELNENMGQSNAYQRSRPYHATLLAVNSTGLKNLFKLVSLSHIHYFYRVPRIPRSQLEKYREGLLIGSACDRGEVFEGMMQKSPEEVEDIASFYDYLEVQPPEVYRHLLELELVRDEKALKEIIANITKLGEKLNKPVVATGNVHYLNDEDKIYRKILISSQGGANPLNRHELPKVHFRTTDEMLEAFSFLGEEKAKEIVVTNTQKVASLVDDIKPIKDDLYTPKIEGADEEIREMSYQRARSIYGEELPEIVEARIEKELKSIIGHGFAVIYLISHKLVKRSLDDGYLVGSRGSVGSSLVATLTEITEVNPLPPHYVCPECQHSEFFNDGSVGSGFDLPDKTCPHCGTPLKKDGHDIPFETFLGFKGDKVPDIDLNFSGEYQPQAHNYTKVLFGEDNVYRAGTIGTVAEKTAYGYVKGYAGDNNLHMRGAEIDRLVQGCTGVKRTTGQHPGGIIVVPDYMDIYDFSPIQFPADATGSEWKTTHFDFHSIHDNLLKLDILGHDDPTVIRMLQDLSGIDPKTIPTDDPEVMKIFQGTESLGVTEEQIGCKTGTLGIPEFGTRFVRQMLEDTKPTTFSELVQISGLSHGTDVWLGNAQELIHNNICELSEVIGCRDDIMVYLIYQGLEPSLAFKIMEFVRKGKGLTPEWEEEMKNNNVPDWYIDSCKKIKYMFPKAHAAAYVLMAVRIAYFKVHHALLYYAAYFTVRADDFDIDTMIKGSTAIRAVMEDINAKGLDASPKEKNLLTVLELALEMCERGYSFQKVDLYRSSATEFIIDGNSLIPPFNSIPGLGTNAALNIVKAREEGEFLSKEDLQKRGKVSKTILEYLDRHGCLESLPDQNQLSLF

For `CCc1cc(Nc2cc(=O)n(CCCCO)c(=O)[nH]2)ccc1C` [HB-EMAU, reference compound], the “MIC (μg/ml) B. subtilis” value [1, 13] was 1.25 µg/mL (≈ 3.94 µM), the “MIC (μg/ml) E. fecium” value [2, 13] was 5 µg/mL (≈ 15.8 µM) and the “MIC (μg/ml) S. aureus (Smith)” value [3, 13] was 5 µg/mL (≈ 15.8 µM). The “MIC (μg/ml) E. coli” value [4, 13] was over 80 µg/mL, the Ki [5] was 0.066 µM and the “MIC (μg/ml) S. aureus” value [6, 13] was 10 µg/mL (≈ 31.5 µM). For the same molecule, the “MIC (μg/ml) E. fecalis” value [7, 13] was 5 µg/mL (≈ 15.8 µM).

`CN[C@H](CC(C)C)C(=O)N[C@H]1C(=O)N[C@@H](CC(N)=O)C(=O)N[C@H]2C(=O)N[C@H]3C(=O)N[C@H](C(=O)N[C@H](C(=O)O)c4cc(O)cc(O)c4-c4cc3ccc4O)[C@H](O)c3ccc(c(Cl)c3)Oc3cc2cc(c3O[C@@H]2O[C@H](CO)[C@@H](O)[C@H](O)[C@H]2O[C@H]2C[C@](C)(N)[C@H](O)[C@H](C)O2)Oc2ccc(cc2Cl)[C@H]1O` [vancomycin] was tested, and the “% Survival at 72 hours” value [8] was 100% (10/10)**.

Molecule `CCc1cc(Nc2cc(=O)n(CCCCN3CCN(c4cc5c(cc4F)c(=O)c(C(=O)O)cn5CC)CC3)c(=O)[nH]2)ccc1C` [Compound 1, 3-{4-[1-(1-ethyl-3-carboxy-4-oxo-6-fluoro-7-quinolyl)-4-piperazinyl]butyl}-6-(3-ethyl-4-methylanilino)uracil] has an MIC ([3]; Staphylococcus aureus, table of clinically relevant strains, read-out: MIC (μg/ml) S. aureus (Smith)) of 0.313 µg/mL (≈ 0.506 µM), an MIC ([6]; Staphylococcus aureus, table of clinically relevant strains, read-out: MIC (μg/ml) S. aureus) of 0.313 µg/mL (≈ 0.506 µM) and an MIC [9] of 0.313 µg/mL (≈ 0.506 µM).

For `CCc1cc(Nc2cc(=O)n(CCCCN3CCN(c4cc5c(cc4F)c(=O)c(C(=O)O)cn5C4CC4)CC3)c(=O)[nH]2)ccc1C` [Compound 2, 3-{4-[1-(1-cyclopropyl-3-carboxy-4-oxo-6-fluoro-7-quinolyl)-4-piperazinyl]butyl}-6-(3-ethyl-4-methylanilino)uracil], the “protection of infected mice (group of five)” value (“protection of infected mice” below) [10, 14] was “protection was afforded all five infected mice”.

“3-{5-[1-(1-ethyl-3-carboxy-4-oxo-6,8-difluoro-7-quinolyl)-3-(1,3-diazabicyclononyl)]pentyl}-6-(3-ethyl-4-methylanilino)uracil [Compound 88]” was tested, and the “MIC (μg/ml) B. subtilis” value ([1]; second table) was 0.625 µg/mL, the “MIC (μg/ml) E. fecium” value ([2]; second table) was 5 µg/mL and the “MIC (μg/ml) S. a. (Smith)” value ([3]; second table) was 1.25 µg/mL. For the same molecule, the “MIC (μg/ml) E. coil” value ([4]; second table) was over 20 µg/mL, the “MIC (μg/ml) S. aureus” value ([6]; second table) was 1.25 µg/mL and the “MIC (μg/ml) E. fecalis” value ([7]; second table) was 2.5 µg/mL.

Work on `CCc1cc(Nc2ccc(NC(=O)N3CCN(c4cc5c(cc4F)c(=O)c(C(=O)O)cn5CC)CC3)c(=O)[nH]2)ccc1C` [Compound 77, 3-{[1-(1-ethyl-3-carboxy-4-oxo-6-fluoro-7-quinolyl)-4-piperazinyl]carboxamido}-6-(3-ethyl-4-methylanilino)-2-pyridone] yielded a Ki ([5]; second table) of 8 µM.

In the case of `CCn1cc(C(=O)O)c(=O)c2cc(F)c(N3CCNCC3)cc21` [nflxn, norfloxacin], the “Ki (μM) Pol IIIC” value [5] is reported as “inactive”.

For `O=C(O)c1cn(C2CC2)c2cc(N3CCNCC3)c(F)cc2c1=O` [cflxn, ciprofloxacin], the “% Survival at 72 hours” value [11] was 90% (9/10)** and the “Ki (μM) Pol IIIC” value [5] was “inactive”.

In the case of `CCc1cc(Nc2cc(=O)n(CCCCN3CCN(c4cc5c(cc4F)c(=O)c(C(=O)O)cn5C4CC4)CC3)c(=O)[nH]2)ccc1C.CS(=O)(=O)O` [Compound 10, 3-{4-[1-(1-cyclopropyl-3-carboxy-4-oxo-6-fluoro-7-quinolyl)-4-piperazinyl]butyl}-6-(3-ethyl-4-methylanilino)uracil methanesulfonate], the “infected mice protected from death (group of five)” value ([10]; dose 0.3 mg per kg body weight) is reported as “one of five”, the “protection of infected mice” value ([10]; dose of 1 mg/kg or higher) is reported as “complete protection” and the “protection of infected mice” value [10, 14] is reported as “provided protection in the same dosage range as Compound 2”.

In the case of `CCc1cc(Nc2cc(=O)n(CCCCN3CCN(c4c(F)cc5c(=O)c(C(=O)O)cn(C6CC6)c5c4F)CC3C)c(=O)[nH]2)ccc1C` (centres unmarked) [Compound 70, 3-{4-[1-(1-cyclopropyl-3-carboxy-4-oxo-6,8-difluoro-7-quinolyl)-4-(3-methylpiperazinyl)]butyl}-6-(3-ethyl-4-methylanilino)uracil], the “activity against intraperitoneal challenge” value [12] is reported as “dose-related activity”.
